Measured values reported in patent US20240415819A1, “MACROCYCLIC COMPOUNDS AS PROTEASOME SUBUNIT BETA TYPE-5 INHIBITORS” (Lead Discovery Center GmbH, priority 2021, published 2024).
Like-named read-outs stand apart in the source and are kept apart here.

How the values were obtained:
Karpas cells = experiment: Glo assay of Karpas cells (Table 3; ProteasomeGlo plating scheme); type: cell-based; conditions: read-out: Pglo Karpas
Text: Inhibition is indicated as IC50 [nM] (“-”=not measured). […] • Chymotrypsin-Like Cell-Based Proteasome-GloTM Assay (Promega; […]) • Cell culture 384-well plates (Greiner BioOne; 781080) • Dispensing cassette, MultiDrop Standard tube dispensing cassette (Thermo Scientific; 24072670) • DPBS (Pan BioTech; P04-36500) • Cell culture 384-well plates (Greiner BioOne; 781080) • CPD source plate: diamond-shape plate (Labcyte; LP-0200) • Intermediate plate (Labcyte; P-05525) [table] • a. Remove the plates with cells from the incubator. • b. Take all the plates including the compound plate, intermediate plate and Staurosporine plate to the ECHO. • c. Click on “Open” in the ECHO software and select the protocol “QLI5_25ul_30 uM-Grenier”. • d. Follow the on-screen prompts and instructions once you click “Start” to insert the compound plate, intermediate plate and destination plates. • e. Change the final number of destination plates on the program. • f. Follow the on-screen prompts and instructions once you click “Start” to load the Staurosporine and destination plates. • g. Once all the compounds, DMSO and Staurosporine have been transferred, place the destination plates in a wet tissue box. • h. Place the destination plates back into the incubator and incubate at 37° C., 5% CO2 for 105 minutes. • i. Re-seal all the compound+Stauro diamond and intermediate plates and store in the dark. Chymotrypsin like ProteasomeGlo Assay • 1. Thaw the components of the ProteasomeGlo assay at room temperature including the ProteasomeGlo Buffer, the lyophilized Luciferin Detection Reagent and the Suc-LLVY-Glo Substrate. • 2. Reconstitute the Luciferin Detection Reagent in the amber coloured bottle by adding 50 ml of the ProteasomeGlo Buffer. • 3. Vortex the Suc-LLVY-Glo Substrate briefly to reconstitute the Substrate well. • 4. Spin down the Substrate and add 250 μl of the Substrate to the reconstituted Luciferin Detection Reagent from step 2. • 5. Briefly vortex the amber bottle with the mix to prepare a homogenous solution. • 6. Place the mix prepared in step 5 to sit at room temperature for 60 minutes. • 7. After 60 minutes, pipette 25 μl of the mix from step 5 into all wells with the cells. • 8. Shake the plates for 2-5 minutes to ensure the complete mixing of the ProteasomeGlo reagent with the cells. • 9. Leave the plates in the dark for 10-15 minutes. • 10. Measure the luminescence read-out using the Viktor and the protocol “Luminescence_384Well_0.2 sec”. (Note: The Protoeasome-GloTM Reagent (combined Proteasome-GloTM Substrate, Proteasome-GloTM Buffer and Luciferin Detection Reagent) can be stored at 4° C. or -20° C. for 1 month with minimal loss of activity.)

[1] = system: B-cells isolated from PBMC's; experiment: Chymotrypsin-like ProteasomeGlo assay in B-cells isolated from PBMCs; type: cell-based, human; conditions: Homo sapiens
Text: PBMC's will be isolated from human blood followed by B-cell isolation from the PBMC's using the Miltenyi Isolation Kit. • 2. This experiment will use the Chymotrypsin-like ProteasomeGlo read-out to generate IC50's following compound treatment. • 3. Dilute all compounds 1:100 for the assay. • 4. […] Repeat the DMSO transfer with lane 12. • 5. Lane 12 should not be seeded with any cells. Only medium! • 6. For all steps, make sure the samples and reagents remain cool! • 7. While dealing with the buffy coats, be careful to not let any exposed skin to be in direct contact with the blood. […] PBMC isolation followed by B-cell isolation using the Miltenyi Kit • Day 2: B-cell plating, ECHO transfer and ProteasomeGlo assay For the initial steps and to make processing the buffy coats easier, separately process the buffy coats. • a. Cut the tube attached to the buffy coats carefully using a clean, sterile and fresh scalpel. • b. Transfer the blood into 2 individual 50 ml falcons. • c. Add an equal volume of DPBS to the blood in the falcons. • d. Add 20 ml of lymphocyte separating medium to two 50 ml falcons. • e. Carefully pour 15-20 ml of the blood+DPBS mix from step c. onto the lymphocyte separating medium from step d. • f. Centrifuge the falcons with the lymphocyte separating medium+blood mix at 800×g for 15 minutes using a swing-out rotor. • g. Following centrifugation, carefully remove the falcons from the centrifuge. • h. The following layers will be observed: • i. Aspirate the plasma layer off carefully without disturbing the different layers. • j. Remove the cell pellet using a pipette into two fresh 50 ml falcons. • k. Fill the falcons with the cells up to 50 ml with DPBS. • l. Centrifuge the falcons at 250×g for 10 minutes using a swing-out rotor (Brake-off). • m. Aspirate the complete DPBS off the cells without disturbing the cell pellet at the bottom of the falcon. • n. Re-suspend the cell pellet in 10 ml of 1×RBC lysis buffer. • o. Incubate the falcons at room temperature in the dark for 10 minutes. • p. After RBC lysis, centrifuge the tubes at 250×g for 10 minutes using a swing-out rotor (brake-off). • (*Note: If the cell pellet is still red or light red, repeat steps n. to p.!) • q. Re-suspend the cell pellet in DPBS up to 50 ml in the falcon. • r. Centrifuge the falcons at 250×g for 10 minutes using a swing-out rotor (Brake-off). • s. Aspirate the DPBS off the cells without disturbing the cell pellet at the bottom of the falcon. • t. Repeat the wash step as described in steps q. to s. 2× times more (total number of washes is 3×). • u. Aspirate the DPBS completely off the cell pellet after the last wash without disturbing the cell pellet. • v. Re-suspend the cell pellet in 20 ml of PBMC cell medium. • w. […] Re-suspend the pellet in volume of the B-cell isolation buffer calculated as follows: • k. Mix well using a 1 ml pipette and incubate the mix on ice for 20 mins. • l. In the meantime, equilibrate one LS Column as follows: • 1. Insert one LS Column into one slot of the separator as depicted in the pictures above. • 2. Place a 50 ml falcon at the bottom of the LS column to collect the wash flow-through. • 3. Add 3 ml of the B-cell isolation buffer into the column. • 4. Allow the buffer to flow-through making sure that the entire volume passes the column and that the column reservoir is empty before the addition of the cells. • 5. Remove the falcon with the flow-through and discard. • m. Place a fresh 50 ml falcon under the LS Column to collect the untouched B-cells isolated from the PBMCs. • n. Apply the entire volume of the cell+antibody+microbeads mix to the LS Column. • o. Collect the flow-through from each application of the mix into the same 50 ml falcon under the LS Column. • p. Once the complete volume of the cell+antibody+microbead mix has been passed through, proceed to washing of the column. • q. Add 3 ml of the B-cell isolation buffer to the LS Column and allow the buffer to flow-through. […]

[2] = B-cells isolated from PBMC's, read-out: Pglo B-Cell

SMILES | IC50 (Karpas cells) | IC50 [1, 2] | IC50 ([1]; read-out: Pglo B-Cell [nM])
CO[C@@H](C(=O)N[C@H]1CC(=O)N2CCCC(CCOc3ccc(C)c(c3)CNC(=O)[C@H](CCc3ccccc3)NC1=O)C2)c1ccccc1 (stereo partly drawn) [Compound 86, (2R)-2-methoxy-N-((9S,12S)-5^4-methyl-8,11,14-trioxo-9-phenethyl-4-oxa-7,10-diaza-1(3,1)-piperidina-5(1,3)-benzenacyclotetradecaphane-12-yl)-2-phenylacetamide] | < 100 nM |  | 
Cc1ccc2cc1CNC(=O)[C@H](C)NC(=O)CCC(=O)N1CCCC(CCO2)C1 (stereo partly drawn) [Compound 78, (9S)-5^4,9-dimethyl-4-oxa-7,10-diaza-1(3,1)-piperidina-5(1,3)-benzenacyclotetradecaphane-8,11,14-trione] | 100 to 500 nM | 100 to 500 nM | 
Cc1ccc2cc1CNC(=O)[C@H](CCc1ccccc1)NC(=O)[C@@H](NC(=O)[C@@H](C)c1ccccc1)CC(=O)N1CCCC(CCO2)C1 (stereo partly drawn) [Compound 81, (2S)-N-((9S,12S)-5^4-methyl-8,11,14-trioxo-9-phenethyl-4-oxa-7,10-diaza-1(3,1)-piperidina-5(1,3)-benzenacyclotetradecaphane-12-yl)-2-phenylpropanamide] | < 100 nM | < 100 nM | 
CCOC(=O)N[C@H]1CC(=O)N2CCCC(CCOc3ccc(C)c(c3)CNC(=O)[C@H](CCc3ccccc3)NC1=O)C2 (stereo partly drawn) [Compound 39, ethyl ((9S,12S)-5^4-methyl-8,11,14-trioxo-9-phenethyl-4-oxa-7,10-diaza-1(3,1)-piperidina-5(1,3)-benzenacyclotetradecaphane-12-yl)carbamate] |  |  | < 100 nM
Cc1ccc2cc1CNC(=O)[C@H](CCc1ccccc1)NC(=O)[C@@H](NC(=O)c1cc3cc(C(F)(F)F)ccc3n1C)CC(=O)N1CCCC(CCO2)C1 (stereo partly drawn) [Compound 87, 1-methyl-N-((9S,12S)-5^4-methyl-8,11,14-trioxo-9-phenethyl-4-oxa-7,10-diaza-1(3,1)-piperidina-5(1,3)-benzenacyclotetradecaphane-12-yl)-5-(trifluoromethyl)-1H-indole-2-carboxamide] | < 100 nM |  | 
Cc1ccc2cc1CNC(=O)[C@H](CCc1ccccc1)NC(=O)[C@@H](NC(=O)c1ccccc1)CC(=O)N1CCCC(CCO2)C1 (stereo partly drawn) [Compound 26, N-((9S,12S)-5^4-methyl-8,11,14-trioxo-9-phenethyl-4-oxa-7,10-diaza-1(3,1)-piperidina-5(1,3)-benzenacyclotetradecaphane-12-yl)benzamide] |  | < 100 nM | 
Cc1ccc2cc1CNC(=O)[C@H](CCc1ccccc1)NC(=O)[C@@H](NC(=O)C1CCCc3ccccc31)CC(=O)N1CCCC(CCO2)C1 (stereo partly drawn) [Compound 82, N-((9S,12S)-5^4-methyl-8,11,14-trioxo-9-phenethyl-4-oxa-7,10-diaza-1(3,1)-piperidina-5(1,3)-benzenacyclotetradecaphane-12-yl)-1,2,3,4-tetrahydronaphthalene-1-carboxamide] | < 100 nM | < 100 nM | 
Cc1ccc2cc1CNC(=O)[C@H](CCc1ccccc1)NC(=O)[C@@H](NC(=O)CN1CCCC1)CC(=O)N1CCCC(CCO2)C1 (stereo partly drawn) [Compound 89, N-((9S,12S)-5^4-methyl-8,11,14-trioxo-9-phenethyl-4-oxa-7,10-diaza-1(3,1)-piperidina-5(1,3)-benzenacyclotetradecaphane-12-yl)-2-(pyrrolidin-1-yl)acetamide] | < 100 nM |  | 
COc1cccc(CC(=O)N[C@H]2CC(=O)N3CCCC(CCOc4ccc(C)c(c4)CNC(=O)[C@H](CCc4ccccc4)NC2=O)C3)c1 (stereo partly drawn) [Compound 85, 2-(3-methoxyphenyl)-N-((9S,12S)-5^4-methyl-8,11,14-trioxo-9-phenethyl-4-oxa-7,10-diaza-1(3,1)-piperidina-5(1,3)-benzenacyclotetradecaphane-12-yl)acetamide] | < 100 nM |  | 
Cc1ccc2cc1CNC(=O)[C@H](Cc1ccccc1)NC(=O)CCC(=O)N1CCCC(CCO2)C1 (stereo partly drawn) [Compound 79, (9S)-9-benzyl-5^4-methyl-4-oxa-7,10-diaza-1(3,1)-piperidina-5(1,3)-benzenacyclotetradecaphane-8,11,14-trione] | 500 to 1000 nM | 500 to 1000 nM | 
Cc1ccc2cc1CNC(=O)C(CCc1cccnc1)NC(=O)CCC(=O)N1CCCC(CCO2)C1 (stereo not drawn) [Compound 51, 5^4-methyl-9-(2-(pyridin-3-yl)ethyl)-4-oxa-7,10-diaza-1(3,1)-piperidina-5(1,3)-benzenacyclotetradecaphane-8,11,14-trione] |  | < 100 nM | 
COc1ccccc1CC(=O)N[C@H]1CC(=O)N2CCCC(CCOc3ccc(C)c(c3)CNC(=O)[C@H](CCc3ccccc3)NC1=O)C2 (stereo partly drawn) [Compound 84, 2-(2-methoxyphenyl)-N-((9S,12S)-5^4-methyl-8,11,14-trioxo-9-phenethyl-4-oxa-7,10-diaza-1(3,1)-piperidina-5(1,3)-benzenacyclotetradecaphane-12-yl)acetamide] | < 100 nM |  | 
Cc1ccc2cc1CNC(=O)[C@H](CCc1ccccc1)NC(=O)[C@@H](NC(=O)CCc1cccc(F)c1)CC(=O)N1CCCC(CCO2)C1 (stereo partly drawn) [Compound 25, 3-(3-fluorophenyl)-N-((9S,12S)-5^4-methyl-8,11,14-trioxo-9-phenethyl-4-oxa-7,10-diaza-1(3,1)-piperidina-5(1,3)-benzenacyclotetradecaphane-12-yl)propanamide] |  | < 100 nM | 
Cc1ccc2cc1CNC(=O)[C@H](CCc1ccccc1)NC(=O)[C@@H](NC(=O)c1ccccn1)CC(=O)N1CCCC(CCO2)C1 (stereo partly drawn) [Compound 40, N-((9S,12S)-5^4-methyl-8,11,14-trioxo-9-phenethyl-4-oxa-7,10-diaza-1(3,1)-piperidina-5(1,3)-benzenacyclotetradecaphane-12-yl)picolinamide] |  | < 100 nM | 
